Legend:
virus strain F (R13025) = test: microbe, parasite or virus in culture; format: cell-based, HIV; details: FR=EC50(mutant strain)/EC50(HIV-1 strain LAI); strain F
How it was run: (§1)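 Anti-HIV activity against multiply mutated clinical isolates is measured in MT4 cells over a five-day incubation, using MTT viability (540 nm) as a proxy for protection from viral cytopathicity. Values are reported as EC50 or as fold change versus the LAI reference strain.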

virus strain S (R13080) = test: microbe, parasite or virus in culture; format: cell-based, HIV; details: FR=EC50(mutant strain)/EC50(HIV-1 strain LAI); strain S
How it was run: as §1

[1] = system: clinically isolated HIV strain H; format: cell-based; details: FR=EC50(mutant strain)/EC50(HIV-1 strain LAI)
Description: (§2) HIV- or mock-infected MT4 cells were incubated for five days in the presence of various concentrations of the inhibitor. […] Cell viability is measured by measuring the concentration of MTT, a yellow, water soluble tetrazolium dye that is converted to a purple, water insoluble formazan in the mitochondria of living cells only. Upon solubilization of the resulting formazan crystals with isopropanol, the absorbance of the solution is monitored at 540 nm. The values correlate directly to the number of living cells remaining in the culture at the completion of the five day incubation. The inhibitory activity of the compound was monitored on the virus-infected cells and was expressed as EC50 and EC90. These values represent the amount of the compound required to protect 50% and 90%, respectively, of the cells from the cytopathogenic effect of the virus. The toxicity of the compound was measured on the mock-infected cells and was expressed as CC50, which represents the concentration of compound required to inhibit the growth of the cells by 50%. The selectivity index (SI) (ratio CC50/EC50) is an indication of the selectivity of the anti-HIV activity of the inhibitor.
(§3) Because of the increasing emergence of drug resistant HIV strains, the present compounds were tested for their potency against clinically isolated HIV strains harboring several mutations.
(§4) As a measure of the broad spectrum activity of the present compounds, the fold resistance (FR) defined as FR=EC50(mutant strain)/EC50(HIV-1 strain LAI).

[2] = system: clinically isolated HIV strain T; format: cell-based; details: FR=EC50(mutant strain)/EC50(HIV-1 strain LAI)
Description: as §2, §3, §4

[3] = system: clinically isolated HIV strain I; format: cell-based; details: FR=EC50(mutant strain)/EC50(HIV-1 strain LAI)
Description: as §2, §3, §4

[4] = system: clinically isolated HIV strain O; format: cell-based; details: FR=EC50(mutant strain)/EC50(HIV-1 strain LAI)
Description: as §2, §3, §4

[5] = system: clinically isolated HIV strain J; format: cell-based; details: FR=EC50(mutant strain)/EC50(HIV-1 strain LAI)
Description: as §2, §3, §4

Compound	fold resistance (FR), strain F (virus strain F (R13025))	fold resistance (FR), strain S (virus strain S (R13080))	fold resistance (FR), strain H [1]	fold resistance (FR), strain T [2]	fold resistance (FR), strain I [3]	fold resistance (FR), strain O [4]	fold resistance (FR), strain J [5]
CC(C)CN(C[C@@H](O)[C@H](Cc1ccccc1)NC(=O)O[C@H]1CO[C@H]2OCC[C@H]21)S(=O)(=O)c1ccc2nc(NC(=O)CN3CCNCC3)sc2c1 [Compound 17]	0.3	0.6	0.8	1.0	0.7	0.3	0.2
CC(=O)N(CCN1CCCC1)c1nc2ccc(S(=O)(=O)N(CC(C)C)C[C@@H](O)[C@H](Cc3ccccc3)NC(=O)COc3c(C)cccc3C)cc2s1 [Compound 78]	4.8	12.1	2.6	60.5	3.9	8.9	2.9
CC(C)CN(C[C@@H](O)[C@H](Cc1ccccc1)NC(=O)O[C@H]1CO[C@H]2OCC[C@H]21)S(=O)(=O)c1ccc2nc(N3CCN(C)C3=O)sc2c1 [Compound 25]	26.0	42.5	4.7	619.8	3.5	5.6	6.0
CNCCNc1nc2ccc(S(=O)(=O)N(CC(C)C)C[C@@H](O)[C@H](Cc3ccccc3)NC(=O)O[C@H]3CO[C@H]4OCC[C@H]43)cc2s1 [Compound 23]	1.1	1.1	1.2	1.2	1.0	0.9	1.0
CC(C)CN(C[C@@H](O)[C@H](Cc1ccccc1)NC(=O)OCc1cccnc1)S(=O)(=O)c1ccc2nc(NCCCN(C)C)sc2c1 [Compound 52]	10.2	20.3	1.8	124.5	1.3	1.6	2.7
Cc1c(N)cccc1C(=O)N[C@@H](Cc1ccccc1)[C@H](O)CN(CC(C)C)S(=O)(=O)c1ccc2nc(NCCCN(C)C)sc2c1 [Compound 54]	3.6	1.8	0.6	1.4	0.9	0.4	0.4
CC(C)CN(CC(O)C(Cc1ccccc1)NC(=O)OC1COC2OCCC12)S(=O)(=O)c1ccc2nc(NC(=O)CN3CCNCC3)sc2c1 (mixture of isomers) [Compound 5]	0.5	0.6	0.6	2.6	0.6	0.4	0.3
CC(=O)N(C)c1nc2ccc(S(=O)(=O)N(CC(C)C)C[C@@H](O)[C@H](Cc3ccccc3)NC(=O)OCc3cccnc3)cc2s1 [Compound 81]	106.8	121.0	5.6	387.6	6.1	20.4	29.6
CC(C)CN(C[C@@H](O)[C@H](Cc1ccccc1)NC(=O)OCc1cncs1)S(=O)(=O)c1ccc2nc(NCCN3CCCC3)sc2c1 [Compound 49]	12.8	17.8	3.6	114.0	2.9	3.9	5.5
CC(C)CN(C[C@@H](O)[C@H](Cc1ccccc1)NC(=O)OCc1cccnc1)S(=O)(=O)c1ccc2nc(NCCN(C)C)sc2c1 [Compound 38]	12.4	11.9	2.0	230.4	1.1	1.2	3.9
Cc1cccc(C)c1OCC(=O)N[C@@H](Cc1ccccc1)[C@H](O)CN(CC(C)C)S(=O)(=O)c1ccc2nc(NCCN(C)C)sc2c1 [Compound 40]	7.2	12.8	2.1	87.8	6.4	3.2	2.7
Cc1cccc(C)c1OCC(=O)N[C@@H](Cc1ccccc1)[C@H](O)CN(CC(C)C)S(=O)(=O)c1ccc2nc(NCCN3CCNCC3)sc2c1 [Compound 59]	2.3	4.7	1.2	22.2	1.2	2.0	1.7
CC(=O)N(C)c1nc2ccc(S(=O)(=O)N(CC(C)C)C[C@@H](O)[C@H](Cc3ccccc3)NC(=O)COc3c(C)cccc3C)cc2s1 [Compound 77]	8.9	11.6	2.2	144.7	8.3	11.7	11.0
CC(C)CN(CC(O)C(Cc1ccccc1)NC(=O)OC1CNC(=O)C1)S(=O)(=O)c1ccc2nc(NC(=O)CN(C)C)sc2c1 (centres unmarked) [Compound 36]	0.2	0.2	0.6	0.2	0.5	0.2	0.2
